# Laboratory results taken from PMC6413231, “o-Vanillin Derived Schiff Bases and Their Organotin(IV) Compounds: Synthesis, Structural Characterisation, In-Silico Studies and Cytotoxicity” (International Journal of Molecular Sciences, 2019).
# Assays:
# [1] = test system: HT29 (colon) cancer cells; test: MTT growth inhibition assay, HT29; assay type: cell-based; conditions: 72 h, ± standard error, read-out: Growth Inhibition Concentration, GI50
# Procedure: (§1) The Schiff bases and their organotin(IV) compounds were screened for in vitro cytotoxicity against a panel of 12 cancer cell lines: EJ-28 (muscle invasive bladder), RT-112 (minimum-invasive bladder), HT29 (colon), U87 and SJ-G2 (glioblastoma), MCF-7 (breast), A2780 (ovarian), H460 (lung), A431 (skin), DU145 (prostate), BE2-C (neuroblastoma), MIA (pancreatic) and one normal breast cell line (MCF-10A) using the MTT metabolic assay (Figure 6). After 72 h of incubation, a dose-dependent […] effect towards the cancer cell lines was measured at very low micromolar (µM) concentrations of the compounds. The growth inhibition concentration of the Schiff bases and their organotin(IV) compounds required to inhibit 50% cell proliferation relative to the cells that were treated with DMSO (control) are given in Table 2. The stability of these compounds was assessed in DMSO as well as in a mixture of DMSO-H2O. The absorbance obtained from UV-vis spectroscopy analysis was monitored for 72 h, and an unchanged pattern in the spectra was indicative that the compounds were stable in both the solvent systems tested.
# (§2) For HT29 (colon), U87 and SJ-G2 (glioblastoma), MCF-7 (breast), A2780 (ovarian), H460 (lung), A431 (skin), Du145 (prostate), BE2-C (neuroblastoma), MIA (pancreas) cell lines and one normal breast cell line, MCF-10A (normal breast), the MTT assays were performed using the following method:
# (§3) Stock solutions were prepared as follows and stored at −20 °C: Trial compounds were stored as 10 mM solutions in DMSO. All cell lines were cultured in a humidified atmosphere 5% CO2 at 37 °C. The cancer cell lines were maintained in Dulbecco’s modified Eagle’s medium (DMEM) (Trace Biosciences) supplemented with 10% foetal bovine serum, 10 mM sodium bicarbonate, penicillin (100 IU/mL), streptomycin (100 μg/mL) and glutamine (4 mM). The normal cell line, MCF-10A was cultured in DMEM:F12 (1:1) cell culture media, 5% heat inactivated horse serum, supplemented with penicillin (50 IU/mL), streptomycin (50 μg/mL), 20mM Hepes, L-glutamine (2 mM), epidermal growth factor (20 ng/mL), hydrocortisone (500 ng/mL), cholera toxin (100 ng/mL) and insulin (10 μg/mL).
# (§4) Cells in logarithmic growth were transferred to 96-well plates. Cytotoxicity was determined by plating cells in duplicate in 100 μL medium at a density of 2500–4000 cells/well. On day 0 (24 h after plating), when the cells were in logarithmic growth, 100 μL medium, with or without the test agent, was added to each well. After 72 h drug exposure, growth inhibitory effects were evaluated using the MTT (3-[4,5-dimethylthiazol-2-yl]-2,5-diphenyltetrazolium bromide) assay and absorbance read at 540 nm. Percentage growth inhibition was determined at a fixed drug concentration of 25 μM. A value of 100% was indicative of complete cell growth inhibition. Those analogues showing appreciable percentage growth inhibition underwent further dose-response analysis allowing for the calculation of a GI50 value. This value is the drug concentration at which cell growth is 50% inhibited based on the difference between the optical density values on day 0 and those at the end of drug exposure.
# A431 (skin) cancer cells = test: MTT growth inhibition assay, A431; assay type: cell-based; conditions: 72 h, ± standard error, read-out: Growth Inhibition Concentration, GI50
# Procedure: as §1, §2, §3, §4
# [2] = test system: MCF-10A (normal breast) cell line; test: MTT growth inhibition assay, MCF10A; assay type: cell-based; conditions: MCF10A normal breast cells, 72 h, ± standard error, read-out: Growth Inhibition Concentration, GI50
# Procedure: as §1, §2, §3, §4
# calf thymus DNA (CT-DNA) = test: CT-DNA binding by UV-vis absorption titration; conditions: for Bathochromism Shift (nm) / Hypochromism, (%): CT-DNA, UV-vis absorption titration; for Gibbs Free Energy: interaction with CT-DNA
# Procedure: Both theoretical and experimental DNA binding of the synthesised organotin(IV) compounds with DNA were investigated. The interaction of organotin(IV) compounds with CT-DNA was elucidated via UV-visible absorption spectroscopy. […] The absorption spectra of diphenyltin(IV) compounds at a constant concentration (50 μM) in the absence and the presence of different concentrations of CT-DNA are shown in Figure 8. Upon increasing concentrations of CT-DNA, hypochromism and bathochromism occurred at around 350–377 nm indicating strong π–π stacking interactions between the aromatic chromophore of the organotin(IV) compounds and the nitrogeneous pair of the DNA strand [11, 70]. The same hypochromism and bathochromism shifts were also observed in other transitions. In order to compare the binding strength of the organotin(IV) compounds to CT-DNA, the intrinsic binding constants (Kb) were quantitatively determined and are presented in Table 3.
# DNA binding experiments were carried out at 25°C. DNA concentration per nucleotide was determined using the molar absorption coefficient (6600 M^−1 cm^−1) at 260 nm. […] Absorption titration experiments were performed maintaining the concentration of the organotin(IV) compounds solutions at 50 µM and gradually increasing the concentration of CT-DNA. The organotin(IV) compounds were dissolved in DMSO and diluted with Tris-HCI buffer at room temperature (25 °C). The solutions were scanned over 230–600 nm. Absorbance values were recorded 10 min after the addition of DNA solution. The binding constant, Kb was determined using the equation: [DNA]/(εa−εf)=[DNA]/(εb−εf)+1/Kb(εb−εf) where [DNA] is the concentration of DNA in base pairs, εa corresponds to the apparent molar extinction coefficient Aabs/[M], εf corresponds to the extinction coefficient for the free organotin [M] and εb corresponds to the extinction coefficient for the fully bound organotin compound.
Substance,GI50 [1] [µM],GI50 (A431 (skin) cancer cells) [µM],GI50 [2] [µM],Bathochromism Shift (nm) (calf thymus DNA (CT-DNA)),"Hypochromism, (%) (calf thymus DNA (CT-DNA))",Gibbs Free Energy (calf thymus DNA (CT-DNA)) [kJ/mol]
"Diphenyltin(IV) [Ph2Sn(S2MoVa), Diphenyltin(IV) [S-2-Methybenzyl-β-N-(2-hydroxy-3-methoxybenzylmethylene) dithiocarbazate]]",1.8 ± 0.13,2.1 ± 0.09,1.2 ± 0.3,6,41.06,-33.1
"Diphenyltin(IV) [Ph2Sn(S4MoVa), Diphenyltin(IV) [S-4-Methybenzyl-β-N-(2-hydroxy-3-methoxybenzylmethylene) dithiocarbazate]]",0.87 ± 0.22,1.4 ± 0.38,1.1 ± 0.37,4,28.25,-31.0
